Assay results taken from patent US10828316B2, “Method of treating bacterial infections” (priority 2016, dated 2020).
In brackets after ≈: the same amount, converted by molar mass. Where two headings read alike, the source gives them in different places.

Tests used:
[1] = test system: E. coli strain no 5; assay: MIC; type: cell-based; conditions: Escherichia coli, NO5, read-out: MIC of AZT
[2] = test system: A. baumannii strain no 3; assay: MIC; type: cell-based, Acinetobacter baumannii; conditions: for MIC of AZT: A. baumannii strain no 3
[3] = test system: P. aeruginosa strain no 10; assay: MIC; type: cell-based, Pseudomonas aeruginosa; conditions: for MIC of AZT: P. aeruginosa strain no 10
[4] = test system: K. pneumoniae EN011; assay: MIC; type: cell-based, Klebsiella pneumoniae; conditions: Klebsiella pneumoniae, EN011, K. pneumoniae EN011; Combination 1 (AZT+trimethoprim+uridine)
[5] = test system: E. coli EN013; assay: MIC; type: cell-based, Escherichia coli; conditions: Escherichia coli, EN013, E. coli EN013
[6] = test system: P. aeruginosa EN0004; assay: MIC; type: cell-based; conditions: in AZT+trimethoprim+uridine combination
[7] = test system: A. baumannii EN0007; assay: MIC; type: cell-based, A. baumanii; conditions: in AZT+trimethoprim+uridine combination
[8] = test system: E. coli strain no 2; assay: MIC; conditions: Escherichia coli
[9] = test system: S. aureus strain no 13; assay: MIC; conditions: Staphylococcus aureus, NO13, read-out: MIC of AZT
[10] = test system: E. coli
[11] = test system: E. coli ATCC 25922; assay: MIC, in vitro sensitivity of the strain used in vivo; conditions: Escherichia coli, ATCC25922, read-out: MIC against E. coli ATCC 25922

Cc1cn([C@H]2C[C@H](N=[N+]=[N-])[C@@H](CO)O2)c(=O)[nH]c1=O [AZT, 3′-azido-3′-deoxythymidine]
MIC [1]: 4 to 8 µg/mL
MIC of AZT ([2]; uridine 10 μg/ml): >150 µg/mL
MIC of AZT ([2]; uridine 50 μg/ml): >150 µg/mL
MIC of AZT ([2]; uridine 100 μg/ml): >150 µg/mL
MIC of AZT ([2]; uridine 200 μg/ml): >150 µg/mL
MIC ([2]; Acinetobacter baumannii, NO3, read-out: MIC of AZT): > 150 µg/mL
MIC of AZT ([3]; uridine 10 μg/ml): >150 µg/mL
MIC of AZT ([3]; uridine 50 μg/ml): >150 µg/mL
MIC of AZT ([3]; uridine 100 μg/ml): >150 µg/mL
MIC of AZT ([3]; uridine 200 μg/ml): >150 µg/mL
MIC ([3]; Pseudomonas aeruginosa, NO10, read-out: MIC of AZT): > 150 µg/mL
MIC [4]: 0.032 µg/mL
MIC ([5]; Combination 1 (AZT+trimethoprim+uridine)): < 0.008 µg/mL
MIC ([5]; Combination 2 (same mixed with thymidine)): < 0.008 µg/mL
MIC ([5]; in AZT+trimethoprim+uridine combination): < 0.008 µg/mL
MIC [6]: >4 µg/mL
MIC [7]: >4 µg/mL
MIC ([8]; NO2, E. coli strain 2, 5 uM thymidine, uridine 0 μg/ml): > 30 µg/mL
MIC ([8]; NO2, E. coli strain 2, 5 uM thymidine, uridine 10 μg/ml): 25 to 30 µg/mL (≈ 93.5 to 112 µM)
MIC ([8]; NO2, E. coli strain 2, 5 uM thymidine, uridine 100 μg/ml): 10 to 20 µg/mL (≈ 37.4 to 74.8 µM)
MIC ([8]; NO2, read-out: MIC AZT, E. coli strain 2, thymidine 0 μM, uridine 0): 20 to 30 µg/mL (≈ 74.8 to 112 µM)
MIC ([8]; NO2, read-out: MIC AZT, E. coli strain 2, thymidine 0 μM, uridine 100 μg/ml): 5 to 10 µg/mL (≈ 18.7 to 37.4 µM)
MIC ([8]; NO2, read-out: MIC AZT, E. coli strain 2, thymidine 10 μM, uridine 0): > 30 µg/mL
MIC ([8]; NO2, read-out: MIC AZT, E. coli strain 2, thymidine 10 μM, uridine 100 μg/ml): > 30 µg/mL
MIC ([8]; NO2, read-out: MIC AZT, E. coli strain 2, thymidine 10 μM, uridine 100 and trimethoprim 1 μg/ml): 0.1 to 0.5 µg/mL (≈ 0.374 to 1.87 µM)
MIC ([8]; NO2, read-out: MIC AZT, E. coli strain 2, thymidine 30 μM, uridine 0): > 30 µg/mL
MIC ([8]; NO2, read-out: MIC AZT, E. coli strain 2, thymidine 30 μM, uridine 100 μg/ml): > 30 µg/mL
MIC ([8]; NO2, read-out: MIC of AZT, E. coli strain no 2, trimethoprim 0.5 μg/ml, uridine 0 μg/ml): 0.012 to 0.025 µg/mL
MIC ([8]; NO2, read-out: MIC of AZT, E. coli strain no 2, trimethoprim 0.5 μg/ml, uridine 1 μg/ml): ≤ 0.006 µg/mL
MIC ([8]; NO2, read-out: MIC of AZT, E. coli strain no 2, trimethoprim 0.5 μg/ml, uridine 10 μg/ml): 0.05 to 0.1 µg/mL
MIC ([8]; NO2, read-out: MIC of AZT, E. coli strain no 2, trimethoprim 0.5 μg/ml, uridine 100 μg/ml): 0.025 to 0.05 µg/mL
MIC ([8]; NO2, read-out: MIC of AZT, E. coli strain no 2, trimethoprim 0.5 μg/ml, uridine 200 μg/ml): 0.012 to 0.025 µg/mL
MIC ([8]; NO2, read-out: MIC of AZT, E. coli strain no 2, trimethoprim 1 μg/ml, uridine 0 μg/ml): 0.012 to 0.025 µg/mL
MIC ([8]; NO2, read-out: MIC of AZT, E. coli strain no 2, trimethoprim 1 μg/ml, uridine 1 μg/ml): ≤ 0.006 µg/mL
MIC ([8]; NO2, read-out: MIC of AZT, E. coli strain no 2, trimethoprim 1 μg/ml, uridine 10 μg/ml): ≤ 0.006 µg/mL
MIC ([8]; NO2, read-out: MIC of AZT, E. coli strain no 2, trimethoprim 1 μg/ml, uridine 100 μg/ml): 0.025 to 0.05 µg/mL
MIC ([8]; NO2, read-out: MIC of AZT, E. coli strain no 2, trimethoprim 1 μg/ml, uridine 200 μg/ml): 0.012 to 0.025 µg/mL
MIC ([8]; NO2, read-out: MIC of AZT, E. coli strain no 2, trimethoprim 2 μg/ml, uridine 0 μg/ml): 0.006 to 0.012 µg/mL
MIC ([8]; NO2, read-out: MIC of AZT, E. coli strain no 2, trimethoprim 2 μg/ml, uridine 1 μg/ml): ≤ 0.006 µg/mL
MIC ([8]; NO2, read-out: MIC of AZT, E. coli strain no 2, trimethoprim 2 μg/ml, uridine 10 μg/ml): ≤ 0.006 µg/mL
MIC ([8]; NO2, read-out: MIC of AZT, E. coli strain no 2, trimethoprim 2 μg/ml, uridine 100 μg/ml): 0.012 to 0.025 µg/mL
MIC ([8]; NO2, read-out: MIC of AZT, E. coli strain no 2, trimethoprim 2 μg/ml, uridine 200 μg/ml): 0.006 to 0.012 µg/mL
MIC ([8]; NO2, read-out: MIC of AZT, E. coli strain no 2, uridine 0 μg/ml): 20 to 25 µg/mL
MIC ([8]; NO2, read-out: MIC of AZT, E. coli strain no 2, uridine 10 μg/ml): 20 to 25 µg/mL
MIC ([8]; NO2, read-out: MIC of AZT, E. coli strain no 2, uridine 50 μg/ml): 15 to 20 µg/mL
MIC ([8]; NO2, read-out: MIC of AZT, E. coli strain no 2, uridine 100 μg/ml): 5 to 15 µg/mL
MIC ([8]; NO2, read-out: MIC of AZT, E. coli strain no 2, uridine 200 μg/ml): 5 to 15 µg/mL
MIC ([8]; NO2, read-out: MIC of AZT, Table 3, E. coli strain no 2, trimethoprim 0, uridine 0 μg/ml): 20 to 25 µg/mL
MIC ([8]; NO2, read-out: MIC of AZT, Table 3, E. coli strain no 2, trimethoprim 0, uridine 1 μg/ml): 10 to 20 µg/mL
MIC ([8]; NO2, read-out: MIC of AZT, Table 3, E. coli strain no 2, trimethoprim 0, uridine 10 μg/ml): 10 to 20 µg/mL
MIC ([8]; NO2, read-out: MIC of AZT, Table 3, E. coli strain no 2, trimethoprim 0, uridine 100 μg/ml): 2 to 10 µg/mL
MIC ([8]; NO2, read-out: MIC of AZT, Table 3, E. coli strain no 2, trimethoprim 0, uridine 200 μg/ml): 2 to 10 µg/mL
MIC [9]: > 150 µg/mL
log diff peritoneum vs start of treatment ([10]; AZT 30 mg/kg): 0.38
mean log peritoneum ([10]; AZT 30 mg/kg): 5.68
score at sampling ([10]; AZT 30 mg/kg, single mice): 1
inhibition in mice infected with E. coli ([10]; murine peritonitis model): slight inhibition
MIC [11]: > 2 µg/mL
